Data from US12274264B2, “Piperonylic acid derivative and application thereof” (SHENYANG SINOCHEM AGROCHEMICALS R&D CO., LTD., priority 2019, dated 2025).
Where two headings read alike, the source gives them in different places.

Columns and labels:
Type in all cases: in vivo
[1] = tested on: western flower thrips nymphs; test: Determination of activity against western flower thrips nymphs (sprayed kidney bean leaves, mortality after 72 hours); settings: for mortality at 600 µg/mL / mortality at 10 µg/mL / mortality at 100 µg/mL: Frankliniella occidentalis; for mortality at 600 µg/mL: 600 mg/L, read-out: mortality rates against western flower thrips nymphs; for mortality at 10 µg/mL / mortality at 100 µg/mL: read-out: Mortality (%) against Western Flower Thrips Nymphs
Procedure: (§1) According to the solubility of test compounds, the compounds are dissolved with acetone or dimethyl sulfoxide, and then diluted with 0.1% Tween 80 solution to form a required concentration of 50 ml test liquid. The content of the acetone or the dimethyl sulfoxide in the total solution is not more than 10%.
Fresh kidney bean leaves cultured in the glasshouse were selected and uniformly sprayed with 1 ml of the test liquid by using a handheld Airbrush. The leaves were dried naturally and placed in a test tube. Fifteen tidy and healthy western flower thrips nymphs were put into the leaves. Three replicates were set for each treatment. The water treatment was set as control check. After the treatment, the treated tube were placed in a chamber of 24° C., 60%-70% relative humidity and day light. After 72 hours, the number of surviving insects was investigated, and the mortality was calculated.

armyworm = test: Determination of activity against armyworm (corn leaf dip, mortality after 72 hours); settings: foliar, 10 mg/L, third instar, read-out: mortality rates against armyworm
Procedure: as §1
The middle leaves of fresh corns were cut into small sections of 3 cm, and dipped into a solution of the required concentration of test compounds for 10 seconds. After dried in shade, the middle leaves were placed in a 9 cm diameter petri dish provided with filter paper. Fourteen regular healthy test insects (third instar) were put into the leaves. Four replicates were set for each treatment. The pure water treatment was set as control check. The treated discs were placed in a chamber of 24° C., 60%-70% relative humidity and day light. After 72 hours, the number of surviving insects was investigated, and the mortality rate was calculated.

diamondback moth = test: Determination of activity against diamondback moth (cabbage leaf disc dip, mortality after 72 hours); settings: Plutella xylostella, foliar, 10 mg/L, second instar, read-out: mortality rates against diamondback moth
Procedure: as §1
The leaves of cabbage grown in greenhouse were selected, removed the surface waxy layers, punched into circular leaf discs with a diameter of 2 cm by using a puncher, and dipped into a solution of the required concentration of test compounds for 10 seconds. After dried in shade, the circular leaf discs were placed in a 9 cm diameter petri dish provided with filter paper. Ten regular healthy test insects (second instar) were put into the leaf discs. Four replicates were set for each treatment. The pure water treatment was set as control check. The treated discs were placed in a chamber of 24° C., 60%-70% relative humidity and day light. After 72 hours, the number of surviving insects was investigated, and the mortality rate was calculated.

[2] = tested on: Tribolium confusum adults; test: Determination of Tribolium confusum adults (treated feeding bran, 72 h); settings: for mortality at 600 µg/mL: 600 mg/L, read-out: mortality rates against Tribolium confusum adults; for mortality at 5 µg/mL / mortality at 20 µg/mL: read-out: Mortality (%) against Tribolium Confusum Adults
Procedure: as §1
The test liquid was prepared in the order from low dose to high dose according to the test design. Then, the liquid of different concentrations was added to feeding bran and uniformly stirred, and dried in the shade. Then, the resulting feeding bran was collected in a paper cup. Fifty Tribolium confusum adults with consistent size were put in the paper cup. Three replicates were set for each treatment. Control check was set. The treated test materials were put in an observation room under controlled conditions. After 72 h, the number of dead and surviving adults was investigated.

[3] = tested on: Tetranychus cinnabarinus adults; test: Determination of acaricidal activity (spray on bean plant leaves with adult spider mites, mortality after 72 hours); settings: after 72 hours, read-out: Mortality (%) against Tetranychus Cinnabarinus Adult; for mortality at 10 µg/mL: 10 mg/L; for mortality at 100 µg/mL: 100 mg/L; for mortality at 600 µg/mL: 600 mg/L
Procedure: as §1
The adult spider mites were put into two true leaves of bean plants. After the number of mites was investigated, the solution of certain concentrations of test compounds was sprayed by using a handheld Airbrush. Three replicates were set for each treatment. Then the leaves were maintained in a standard observation room. After 72 hours, the number of surviving mites was investigated, and the mortality rate was calculated. Compounds I-41, KC3, KC4 and MC were selected for parallel determination of activity against Tetranychus cinnabarinus adults.

Compound	mortality at 600 µg/mL ([1]; after 72 hours) [%]	mortality at 10 µg/mL (armyworm) [%]	mortality at 10 µg/mL (diamondback moth) [%]	mortality at 600 µg/mL ([2]; after 72 h) [%]	other results
O=C(Nc1cccc(C(=O)Nc2c(I)cc(C(F)(C(F)(F)F)C(F)(F)F)cc2OC(F)F)c1F)c1ccc2c(c1)OC(F)(F)O2 [Compound I-1]	> 90	> 90	> 90	> 90	–
CN(C(=O)c1ccc2c(c1)OC(F)(F)O2)c1cccc(C(=O)Nc2c(I)cc(C(F)(C(F)(F)F)C(F)(F)F)cc2OC(F)F)c1F [Compound I-2]	> 90	> 90	> 90	> 90	–
O=C(Nc1cccc(C(=O)Nc2c(Br)cc(C(F)(C(F)(F)F)C(F)(F)F)cc2OC(F)F)c1F)c1ccc2c(c1)OC(F)(F)O2 [Compound I-41]	> 90	> 90	> 90	> 90	mortality at 10 µg/mL ([1]; 10 mg/L, after 72 hours): 90%; mortality at 100 µg/mL ([1]; 100 mg/L, after 72 hours): 95%; mortality at 10 µg/mL [3]: 87%; mortality at 100 µg/mL [3]: 100%; mortality at 600 µg/mL [3]: 100%
CN(C(=O)c1ccc2c(c1)OC(F)(F)O2)c1cccc(C(=O)Nc2c(Br)cc(C(F)(C(F)(F)F)C(F)(F)F)cc2OC(F)F)c1F [Compound I-42, N-(2-bromo-6-difluoromethoxy-4-heptafluoroisopropylphenyl)-2-fluoro-3-(N-methyl-2,2-difluoro-1,3-benzodioxole-5-carboxamido) benzamide]	> 90	> 90	> 90	> 90	mortality at 10 µg/mL ([1]; 10 mg/L, after 72 hours): 91%; mortality at 100 µg/mL ([1]; 100 mg/L, after 72 hours): 100%; mortality at 5 µg/mL ([2]; 5 mg/L, after 72 h): 81%; mortality at 20 µg/mL ([2]; 20 mg/L, after 72 h): 100%
CCN(C(=O)c1ccc2c(c1)OC(F)(F)O2)c1cccc(C(=O)Nc2c(Br)cc(C(F)(C(F)(F)F)C(F)(F)F)cc2OC(F)F)c1F [Compound I-43, N-(2-bromo-6-difluoromethoxy-4-heptafluoroisopropylphenyl)-2-fluoro-3-(N-ethyl-2,2-difluoro-1,3-benzodioxole-5-carboxamido) benzamide]	> 90	> 90	> 90	> 90	–
CCCCN(C(=O)c1ccc2c(c1)OC(F)(F)O2)c1cccc(C(=O)Nc2c(Br)cc(C(F)(C(F)(F)F)C(F)(F)F)cc2OC(F)F)c1F [Compound I-46, N-(2-bromo-6-difluoromethoxy-4-heptafluoroisopropylphenyl)-2-fluoro-3-(N-n-butyl-2,2-difluoro-1,3-benzodioxole-5-carboxamido) benzamide]	> 90	> 90	> 90	> 90	–
O=C(Nc1c(Br)cc(C(F)(C(F)(F)F)C(F)(F)F)cc1OC(F)F)c1cccc(N(CC2CC2)C(=O)c2ccc3c(c2)OC(F)(F)O3)c1F [Compound I-50, N-(2-bromo-6-difluoromethoxy-4-heptafluoroisopropylphenyl)-2-fluoro-3-(N-cyclopropylmethyl-2,2-difluoro-1,3-benzodioxole-5-carboxamido) benzamide]	> 90	> 90	> 90	> 90	–
CC(C)=CCCC(C)CCN(C(=O)c1ccc2c(c1)OC(F)(F)O2)c1cccc(C(=O)Nc2c(Br)cc(C(F)(C(F)(F)F)C(F)(F)F)cc2OC(F)F)c1F (stereo not shown) [Compound I-57]	> 90	> 90	> 90	> 90	–
CSCCCN(C(=O)c1ccc2c(c1)OC(F)(F)O2)c1cccc(C(=O)Nc2c(Br)cc(C(F)(C(F)(F)F)C(F)(F)F)cc2OC(F)F)c1F [Compound I-60, N-(2-bromo-6-difluoromethoxy-4-heptafluoroisopropylphenyl)-2-fluoro-3-(N-(3-methylthiopropyl)-2,2-difluoro-1,3-benzodioxole-5-carboxamido) benzamide]	> 90	> 90	> 90	> 90	–
CN(C(=O)c1ccc2c(c1)OC(F)(F)O2)c1cccc(C(=O)Nc2c(Br)cc(C(F)(C(F)(F)F)C(F)(F)F)cc2OC(F)(F)F)c1F [Compound I-62, N-(2-bromo-4-heptafluoroisopropyl-6-trifluoromethoxyphenyl)-2-fluoro-3-(N-methyl-2,2-difluoro-1,3-benzodioxole-5-carboxamido) benzamide]	> 90	> 90	> 90	> 90	–
O=C(Nc1cccc(C(=O)Nc2c(Cl)cc(C(F)(C(F)(F)F)C(F)(F)F)cc2OC(F)F)c1F)c1ccc2c(c1)OC(F)(F)O2 [Compound I-81]	> 90	> 90	> 90	> 90	–
CN(C(=O)c1ccc2c(c1)OC(F)(F)O2)c1cccc(C(=O)Nc2c(Cl)cc(C(F)(C(F)(F)F)C(F)(F)F)cc2OC(F)F)c1F [Compound I-82]	> 90	> 90	> 90	> 90	–
O=C(Nc1cccc(C(=O)Nc2c(OC(F)F)cc(C(F)(C(F)(F)F)C(F)(F)F)cc2C(F)(F)F)c1F)c1ccc2c(c1)OC(F)(F)O2 [Compound I-121]	> 90	> 90	> 90	> 90	–
CN(C(=O)c1ccc2c(c1)OC(F)(F)O2)c1cccc(C(=O)Nc2c(OC(F)F)cc(C(F)(C(F)(F)F)C(F)(F)F)cc2C(F)(F)F)c1F [Compound I-122]	> 90	> 90	> 90	> 90	–
CNC(=O)c1cc(C#N)cc(C)c1NC(=O)c1cc(Br)nn1-c1ncccc1Cl [Cyantraniliprole, reference compound]	–	–	–	–	mortality at 10 µg/mL ([1]; 72 h): 25%; mortality at 100 µg/mL ([1]; 72 h): 85%; mortality at 5 µg/mL ([2]; 72 h): 0%; mortality at 20 µg/mL ([2]; 72 h): 5%
O=C(Nc1cccc(C(=O)Nc2c(Br)cc(C(F)(C(F)(F)F)C(F)(F)F)cc2Br)c1F)c1ccc2c(c1)OC(F)(F)O2 [KC1, reference compound]	–	–	–	–	mortality at 10 µg/mL ([1]; 10 mg/L, after 72 hours): 15%; mortality at 100 µg/mL ([1]; 100 mg/L, after 72 hours): 85%
CN(C(=O)c1ccc2c(c1)OC(F)(F)O2)c1cccc(C(=O)Nc2c(Br)cc(C(F)(C(F)(F)F)C(F)(F)F)cc2Br)c1F [KC2, reference compound]	–	–	–	–	mortality at 10 µg/mL ([1]; 10 mg/L, after 72 hours): 59%; mortality at 100 µg/mL ([1]; 100 mg/L, after 72 hours): 90%; mortality at 5 µg/mL ([2]; 5 mg/L, after 72 h): 70%; mortality at 20 µg/mL ([2]; 20 mg/L, after 72 h): 76%
CN(C(=O)c1ccccc1)c1cccc(C(=O)Nc2c(Br)cc(C(F)(C(F)(F)F)C(F)(F)F)cc2OC(F)F)c1F [MC]	–	–	–	–	mortality at 10 µg/mL ([1]; 10 mg/L, after 72 hours): 72%; mortality at 100 µg/mL ([1]; 100 mg/L, after 72 hours): 76%; mortality at 10 µg/mL [3]: 0%; mortality at 100 µg/mL [3]: 0%; mortality at 600 µg/mL [3]: 0%
Spinetoram [reference compound]	–	–	–	–	Mortality (%) against Western Flower Thrips Nymphs ([1]; 10 mg/L, after 72 hours): 90%; Mortality (%) against Western Flower Thrips Nymphs ([1]; 100 mg/L, after 72 hours): 100%
